Laboratory results as given in US11613531B2, “Inhibitors of RHO associated coiled-coil containing protein kinase” (Kadmon Corporation, LLC, priority 2017, dated 2023).

Experiments:
[1] = target: Recombinant ROCK2 (amino acids 1-552) (Homo sapiens (Human), UniProt O75116); assay: Z′-Lyte kinase assay, ROCK2; type: biochemical; conditions: 9 points 2-fold serial dilution
Outline: (§1)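 IC50s derive from nonlinear curve fits over a 9-point, 2-fold dilution series, with single-point inhibition at 1 μM expressed relative to DMSO. Activity of truncated human ROCK1 (residues 1-535) and ROCK2 (residues 1-552) measured with the Z′-Lyte kinase format.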

[2] = system: Histamine-induced vascular permeability in mice; assay: Histamine-induced vascular permeability model; type: in vivo; conditions: single oral dose 1 hr. prior to histamine injection
Text: FIG. 12a. ROCK inhibition stabilizes the endothelial barrier function in a histamine-induced vascular permeability model in mice. Representative images of Evan's Blue dye extravasation induced by histamine in the skin of ROCK inhibitor and vehicle treated mice, relative to the control compound (salbutamol). ROCK inhibitor induces vascular barrier stabilization following single dose of compound administered 1 hr. prior to histamine injection.
FIG. 12b. Quantitation of the decrease in spot area size and Evan's Blue dye amount in the skin of ROCK inhibitor treated mice following the induction of capillary leakage by histamine injection.
Histamine-Induced Vascular Permeability Model in Mice […]
20 minutes post challenge with histamine, animals were euthanized. The skin was then inverted, the lesion diameters were measured. The area of the lesion was calculated and expressed in square millimeters. Following diameter measurements, Evan's Blue dye was extracted from the skin tissue and the optical density was measured. Data are calculated against a spiked in Evan's Blue standard curve. […]
The extent of compound efficacy was quantitated by calculating both the overall skin spot area and the amount of Evans Blue dye permeating the skin. 20 Minutes post challenge with histamine, animals were euthanized, the lesion diameters were measured. […]

[3] = system: ppMlc (T18/S19) levels in A7R5 cells; assay: A7R5 in-cell ELISA (pMLC); type: cell-based, Rat; conditions: Rattus norvegicus, A7R5, A7R5 cells
Outline: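 Cellular IC50 came from a nonlinear regression fit of ppMlc (T18/S19) signal, read by colorimetric in-cell ELISA on fixed cells. Rat A7R5 aortic smooth muscle cells had been exposed for 90 min to compounds in 9-point 2-fold serial dilution, 24 h after seeding.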

[4] = system: human ACTA2 gene promoter luciferase reporter in NIH3T3 cells; assay: NIH3T3 Acta2-promoter driven-luciferase assay; type: cell-based; conditions: NIH3T3, 24 h, NIH3T3 cells, plus TGFβ1 for 24 hr; read-out: NIH3T3 Acta2-luc, IC50
Outline: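 NIH3T3 cells stably carrying a human ACTA2 promoter (−1000-1 bp)-luciferase reporter, grown to confluence, treated 24 hr with compound plus TGFβ1 at 9-point serial dilution. Luciferase read after lysis; IC50 by nonlinear regression.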

[5] = target: Recombinant ROCK1 (amino acids 1-535) (Homo sapiens (Human), UniProt Q13464); assay: Z′-Lyte kinase assay, ROCK1; type: biochemical; conditions: 9 points 2-fold serial dilution
Sequence of Recombinant ROCK1 (amino acids 1-535) (Q13464 1-535): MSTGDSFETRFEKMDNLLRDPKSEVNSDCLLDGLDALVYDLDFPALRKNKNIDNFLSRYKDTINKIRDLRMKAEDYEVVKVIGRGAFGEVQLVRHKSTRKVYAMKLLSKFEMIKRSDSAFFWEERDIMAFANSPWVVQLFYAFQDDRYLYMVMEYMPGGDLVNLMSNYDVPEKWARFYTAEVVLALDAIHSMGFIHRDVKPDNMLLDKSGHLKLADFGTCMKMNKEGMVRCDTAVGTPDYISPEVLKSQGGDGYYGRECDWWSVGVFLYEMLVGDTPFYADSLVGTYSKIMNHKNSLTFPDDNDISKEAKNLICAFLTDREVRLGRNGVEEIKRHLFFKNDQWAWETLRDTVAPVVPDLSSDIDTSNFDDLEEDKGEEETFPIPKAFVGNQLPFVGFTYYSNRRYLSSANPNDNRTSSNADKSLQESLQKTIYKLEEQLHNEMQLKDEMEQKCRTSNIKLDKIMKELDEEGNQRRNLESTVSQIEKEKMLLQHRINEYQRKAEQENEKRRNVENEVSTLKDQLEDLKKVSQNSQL
Outline: as §1

Sequence of Recombinant ROCK2 (amino acids 1-552) (O75116 1-552): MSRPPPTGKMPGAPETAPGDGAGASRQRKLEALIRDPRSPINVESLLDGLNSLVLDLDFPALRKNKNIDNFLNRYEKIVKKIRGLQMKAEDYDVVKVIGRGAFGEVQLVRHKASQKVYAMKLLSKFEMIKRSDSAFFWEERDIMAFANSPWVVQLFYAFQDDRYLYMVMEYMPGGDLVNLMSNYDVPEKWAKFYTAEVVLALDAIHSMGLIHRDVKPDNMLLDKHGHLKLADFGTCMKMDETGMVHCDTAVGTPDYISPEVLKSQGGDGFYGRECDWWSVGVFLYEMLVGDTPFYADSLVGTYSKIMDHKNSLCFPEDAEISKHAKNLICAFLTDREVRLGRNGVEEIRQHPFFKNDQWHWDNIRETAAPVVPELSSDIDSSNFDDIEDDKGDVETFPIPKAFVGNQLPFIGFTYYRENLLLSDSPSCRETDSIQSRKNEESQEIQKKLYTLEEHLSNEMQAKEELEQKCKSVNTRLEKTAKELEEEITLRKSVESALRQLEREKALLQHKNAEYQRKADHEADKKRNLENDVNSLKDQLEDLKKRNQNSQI

Clc1cnc(N2C3CCC2CNC3)nc1Nc1ccc2[nH]ncc2c1 [Example 192, N-(2-(3,8-diazabicyclo[3.2.1]octan-8-yl)-5-chloropyrimidin-4-yl)-1H-indazol-5-amine]
IC50 [1]: 12 nM | vascular permeability induced by histamine (Evan's Blue dye extravasation) [2]: blocked | inhibition at 1 µM ([3]; 1 μM compound, read-out: pMLC % inh A7R5 @ [conc]): 53.5% | IC50 ([3]; ppMlc (T18/S19)): 98 nM | IC50 [4]: 189 nM | IC50 [5]: 5 nM
